Measurements from patent US11413240B2 (Board of Regents, The University of Texas System, priority 2016, dated 2022).

Columns and labels:
[1] = in vivo; cited from earlier work
[2] = 10 g/L, 25° C. (77° F.); cited from earlier work
[3] = test system: patients with oral mucositis pain/lesions; assay: Additional patients assessed after methylene blue oral rinse at 0.025%, 0.05% and 0.1% (Table 2)

## CN(C)c1ccc2nc3ccc(=[N+](C)C)cc-3sc2c1 [methylene blue]
[1]
  blood-brain barrier passage: crosses the blood-brain barrier
[2]
  pH in water: 3
[3]; 0.05-0.1% methylene blue as a mouth rinse, almost all patients
  analgesia: sustained analgesia over a few days to several months
[3]; MB 0.025% oral rinse
  onset (of MB effect): 2 D
[3]; MB 0.05% oral rinse
  onset (of MB effect): 1 W
[3]; mouth rinse, case series
  tolerability: tolerated well
